Measured values from PMC7949049 (The Journal of Biological Chemistry, 2020).
“Also recorded” adds a separate entry of the source. Positions of bridges follow the written chain, without caps; N, C: chain ends. Non-standard residues stand in square brackets, D forms with d. Residues, ends and D or L forms follow the SMILES beside them. *: point of attachment. 5FAM = O=C1OC2(c3ccc(O)cc3Oc3cc(O)ccc32)c2ccc(C(=O)*)cc21; S5 = C=CCCC[C@](C)(N)C(=O)O

How the values were obtained:
Cdc42 = biological target: T1, Cdc42 (Homo sapiens, UniProt P60953, Q61L); experiment: Direct-binding fluorescence polarization, Cdc42; conditions: 20 nM FAM-labelled non-solubilized peptide; n ≥ 2; ± standard error from curve fitting; read-out: Kd Cdc42, FP (Table S1)
T1 construct: Cdc42 (pGEX-2T, 1–184, Q61L); GST (cleaved yes); made in house
T1 sequence (P60953 1-184 Q61L, species assumed): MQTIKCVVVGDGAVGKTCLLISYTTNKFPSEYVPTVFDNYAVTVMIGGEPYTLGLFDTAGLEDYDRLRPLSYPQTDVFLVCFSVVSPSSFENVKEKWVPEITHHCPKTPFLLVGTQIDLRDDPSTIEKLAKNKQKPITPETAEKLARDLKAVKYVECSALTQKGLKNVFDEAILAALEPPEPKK
Protocol: (§1) FP experiments were performed on a BMG Labtech Pherastar fluorimeter at 298 K with excitation at 485 nm and emission at 520 nm as described previously ([34]), using 20 nM FAM-labeled peptide. Plates were read after 30 min incubation at room temperature. Data were fitted to a single-site binding model using nonlinear regression analysis in GraphPad prism 8.4 to obtain Kd values and their standard errors.

RhoA·GMPPNP = biological target: T2, RhoA·GMPPNP (Homo sapiens, UniProt P61586, F25N/Q63L); experiment: Direct-binding fluorescence polarization, RhoA; conditions: 20 nM FAM-labelled non-solubilized peptide; n ≥ 2; ± standard error from curve fitting; read-out: Kd RhoA, FP (Table S1)
T2 construct: RhoA (pGEX-2T, 1–186, F25N/Q63L); GST (cleaved yes); made in house
T2 sequence (P61586 1-186 F25N/Q63L): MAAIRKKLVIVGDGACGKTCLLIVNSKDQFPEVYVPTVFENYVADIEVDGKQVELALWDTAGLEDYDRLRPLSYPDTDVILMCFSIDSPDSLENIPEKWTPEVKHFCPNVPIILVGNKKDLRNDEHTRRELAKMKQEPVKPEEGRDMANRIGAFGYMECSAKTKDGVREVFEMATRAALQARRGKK
Protocol: as §1

[1] = Solubility in aqueous solution (observation); format: physicochemical; conditions: qualitative
cells = conditions: confocal microscopy of FAM-labeled peptide; cited from earlier work
Description: It has been shown previously that stapled peptides need to form an amphipathic helix in order to enter cells ([52]), and the amphipathicity of our peptide was disrupted by the inclusion of the so ...

[2] = Circular dichroism, helicity; format: physicochemical; conditions: CD 185-260 nm, 0.2 mg/ml peptide in water, 298 K; CDSSTR method, reference set 3, Dichroweb
Protocol: CD spectra were recorded at 1 nm intervals between 260 and 185 nm using an Aviv Model 410 CD spectrometer with a 1 mm path length quartz cuvette at 298 K. Three scans were recorded for each peptide or protein, the data were averaged, and the buffer background was subtracted. RLIP76 RBDs were measured at 0.2 mg/ml in 10 mM phosphate buffer, pH 7.3, and 150 mM NaF, while peptides were measured at 0.2 mg/ml in water. The helical content of each peptide and RBD was determined using the CDSSTR method with reference Set 3 and DichroWeb ([59], [60], [61]).

SMILES | Kd (Cdc42) [µM] | Kd (RhoA·GMPPNP) [µM] | solubility [1] | cell entry (previous work) (cells) | Helicity (%) of peptides [2] [%]
CC[C@H](C)[C@H](NC(=O)[C@H](CCCNC(=N)N)NC(=O)[C@H](CCC(N)=O)NC(=O)[C@@H](NC(=O)[C@H](CCC(=O)O)NC(=O)[C@H](Cc1c[nH]c2ccccc12)NC(=O)[C@H](CC(C)C)NC(=O)[C@]1(C)CCCC=CCCC[C@](C)(NC(=O)[C@H](CC(C)C)NC(=O)c2ccc3c(c2)C(=O)OC32c3ccc(O)cc3Oc3cc(O)ccc32)C(=O)N[C@@H](CCCCN)C(=O)N[C@@H](CCC(=O)O)C(=O)N[C@@H](CCC(=O)O)C(=O)N1)C(C)C)C(=O)N[C@@H](CC(C)C)C(=O)N[C@H](C(=O)N[C@@H](C)C(=O)N[C@@H](CC(C)C)C(=O)N[C@@H](CCCCN)C(=O)N[C@@H](CCCNC(=N)N)C(=O)N[C@@H](CCCCN)C(=O)N[C@@H](CC(C)C)C(=O)N[C@@H](CCCNC(=N)N)C(=O)N[C@@H](CCC(=O)O)C(=O)N[C@@H](C)C(N)=O)[C@@H](C)O [SP1] (5FAM-L[S5]KEE[S5]LWEVQRILTALKRKLREA-NH2; staple 2-6) | 13 ± 7.4 | 0.0338 ± 0.0054 | poor solubility; also recorded: poorly soluble | able to enter cells | –
CC[C@H](C)[C@H](NC(=O)[C@H](CCCNC(=N)N)NC(=O)[C@H](CCC(N)=O)NC(=O)[C@H](CCC(=O)O)NC(=O)[C@H](CCC(=O)O)NC(=O)[C@H](Cc1c[nH]c2ccccc12)NC(=O)[C@H](CC(C)C)NC(=O)[C@]1(C)CCCC=CCCC[C@](C)(NC(=O)[C@@H](N)CC(C)C)C(=O)N[C@@H](CCCCN)C(=O)N[C@@H](CCC(=O)O)C(=O)N[C@@H](CCC(=O)O)C(=O)N1)C(=O)N[C@@H](CCCCN)C(=O)N[C@H](C(=O)N[C@@H](C)C(=O)N[C@@H](CCC(=O)O)C(=O)N[C@@H](CCCCN)C(=O)N[C@@H](CCCNC(=N)N)C(=O)N[C@@H](CCCCN)C(=O)N[C@@H](CCCCN)C(=O)N[C@@H](CCCNC(=N)N)C(=O)N[C@@H](CCC(=O)O)C(=O)N[C@@H](C)C(N)=O)[C@@H](C)O [wt-sol] (H-L[S5]KEE[S5]LWEEQRIKTAEKRKKREA-NH2; staple 2-6; N-terminus assumed) | – | – | – | – | 46
